Holding throughout (assay type): functional
What all share (conditions): variant bovis BCG

Experiment [1] concerns Mycobacterium tuberculosis. The experiment in a line: Antimycobacterial activity against Mycobacterium bovis BCG at 100 uM by microplate alamar blue assay. For orientation: Resazurin is reduced to fluorescent resorufin, in cell work by metabolically active cells.
The subject of experiment [2] is Mycobacterium tuberculosis. The experiment in a line: Antimycobacterial activity against Mycobacterium bovis BCG at 50 uM by microplate alamar blue assay.
Experiment [3] deals with Mycobacterium tuberculosis. The experiment in a line: Antimycobacterial activity against Mycobacterium bovis BCG at 10 uM by microplate alamar blue assay.
The test system of experiment [4] is Mycobacterium tuberculosis. Nature of the experiment: Antimycobacterial activity against Mycobacterium bovis BCG by microplate alamar blue assay.
For experiment [5], the system named is Mycobacterium tuberculosis. Nature of the experiment: Antimycobacterial activity against Mycobacterium bovis BCG at 1 uM by microplate alamar blue assay.

≈ marks a conversion by molar mass, not a printed value.

Regarding `CCCC#Cc1cn([C@H]2CC[C@@H](CO)O2)c(=O)[nH]c1=O`, the inhibition (commonly the percentage by which the read-out fell short of the control) at 100 µM in experiment [1] was determined as 50%.

In experiment [1], `NC(=O)c1cn([C@H]2CC[C@@H](CO)O2)c2ncnc(N)c12` yielded an inhibition at 100 µM of 25%. For the same molecule, the inhibition at 50 µM in experiment [2] is 25%.

`CCSc1nc(N)nc2c1ncn2[C@H]1CC[C@@H](CO)O1`: the inhibition at 10 µM in experiment [3] was 40%. Besides, the MIC90 – broadly, the lowest concentration that inhibits either 90% of growth or 90% of the strains tested, depending on the study – in experiment [4] was determined as 10 µg/mL (≈ 33.9 µM). The molecule also had an inhibition at 100 µM in experiment [1] of 100%. The molecule further returned an inhibition at 50 µM in experiment [2] of 100%.

Consider `CCCCCC#Cc1cn([C@H]2C[C@H](F)[C@@H](CO)O2)c(=O)[nH]c1=O`, for which the inhibition at 10 µM in experiment [3] was found to be 50%. This molecule also showed an MIC90 in experiment [4] of 50 µg/mL (≈ 154 µM). In addition, at 100 µM the inhibition in experiment [1] was 100%. For the same molecule, the inhibition at 50 µM in experiment [2] amounted to 50%.

In experiment [1], `Nc1ncnc2c1ncn2[C@H]1CC[C@@H](CO)O1` yielded an inhibition at 100 µM of 0%.

As to `Nc1nc(=O)n([C@H]2CC[C@@H](CO)O2)cc1I`, in experiment [1], at 100 µM the inhibition was 0%.

Regarding `O=c1[nH]c(=S)c(Cl)cn1[C@H]1CC[C@@H](CO)O1`, the MIC90 in experiment [4] is 50 µg/mL (≈ 190 µM). Testing at 100 µM in experiment [1] gave an inhibition of 100%. The molecule further gave an inhibition at 50 µM in experiment [2] of 50%.

The molecule `Nc1nc(O)c2ncn([C@H]3CC[C@@H](CO)O3)c2n1` came in with an inhibition at 100 µM in experiment [1] of 0%.

Molecule `CC(=O)OC[C@@H]1CC[C@H](n2cc(Cl)c(=S)[nH]c2=O)O1` registered an MIC90 in experiment [4] of 50 µg/mL (≈ 164 µM). This molecule also yielded an inhibition at 100 µM in experiment [1] of 100%. This molecule registered an inhibition at 50 µM in experiment [2] of 70%.

In experiment [1], `CC(=O)OC[C@@H]1CC[C@H](n2cc(Cl)c(=O)[nH]c2=O)O1` came in with an inhibition at 100 µM of 0%.

`COc1nc(N)nc2c1ncn2[C@H]1CC[C@@H](CO)O1` [METACAVIR] came in with an inhibition at 100 µM in experiment [1] of 25%. This molecule also showed an inhibition at 50 µM in experiment [2] of 25%.

Take `O=c1[nH]c(=O)n([C@H]2CC[C@@H](CO)O2)cc1Br`: in experiment [1], the inhibition at 100 µM came out at 0%.

Molecule `CCCCCCCCC#Cc1cn([C@H]2C[C@H](F)[C@@H](CO)O2)c(=O)[nH]c1=O` came in with an inhibition at 10 µM in experiment [3] of 60%. The molecule also came in with an MIC90 in experiment [4] of 10 µg/mL (≈ 27.3 µM). Testing at 100 µM in experiment [1] gave an inhibition of 100%. Besides, the inhibition at 50 µM in experiment [2] was 100%.

In experiment [3], `CCCCCCCCCCC#Cc1cn([C@H]2C[C@H](F)[C@@H](CO)O2)c(=O)[nH]c1=O` returned an inhibition at 10 µM of 75%. The molecule further registered an MIC90 in experiment [4] of 10 µg/mL (≈ 25.3 µM). Besides, the inhibition at 100 µM in experiment [1] worked out at 100%. In experiment [2], the inhibition at 50 µM was determined as 100%.

For the molecule `Nc1ccn([C@H]2CC[C@@H](CO)O2)c(=O)n1` [ZALCITABINE], the inhibition at 100 µM in experiment [1] stood at 0%.

For the molecule `O=c1[nH]c(=O)n([C@H]2CC[C@@H](CO)O2)cc1Cl`, the inhibition at 100 µM in experiment [1] was 0%.

Molecule `O=c1[nH]c(=O)n([C@H]2CC[C@@H](CO)O2)cc1C#Cc1ccccc1` came in with an inhibition at 100 µM in experiment [1] of 25%. In addition, in experiment [2], 50 µM produced 25% inhibition.

As to `CO[C@H]1/C=C/O[C@@]2(C)Oc3c(C)c(O)c4c(O)c(c(/C=N/N5CCN(C)CC5)c(O)c4c3C2=O)NC(=O)/C(C)=C\C=C\[C@H](C)[C@H](O)[C@@H](C)[C@@H](O)[C@@H](C)[C@H](OC(C)=O)[C@@H]1C` [RIFAMPIN], in experiment [4], the MIC90 is 0.5 µg/mL (≈ 0.608 µM).

In turn, `CC(=O)OC[C@@H]1CC[C@H](n2ccc(=O)[nH]c2=O)O1` displayed an inhibition at 100 µM in experiment [1] of 0%.

Turning to `Nc1nc(=O)n([C@H]2CC[C@@H](CO)O2)cc1Br`, in experiment [3], 10 µM produced 50% inhibition. For the same molecule, in experiment [1], the inhibition at 100 µM amounted to 70%.

In the case of `CCCCCCCCCCCCC#Cc1cn(C2CC(F)C(CO)O2)c(=O)[nH]c1=O` (stereo not drawn), in experiment [3], the inhibition at 10 µM amounted to 100%. The same molecule came in with an MIC90 in experiment [4] of 1 µg/mL (≈ 2.37 µM). Also, 100 µM produced 100% inhibition in experiment [1]. The molecule further returned an inhibition at 50 µM in experiment [2] of 100%.

For the molecule `CCCCCCCCCC#Cc1cn([C@H]2CC[C@@H](CO)O2)c(=O)[nH]c1=O`, the inhibition at 10 µM in experiment [3] turned out to be 100%. Besides, the MIC90 in experiment [4] came out at 1 µg/mL (≈ 2.76 µM). The same molecule returned an inhibition at 100 µM in experiment [1] of 100%. Also, the inhibition at 1 µM in experiment [5] was determined as 80%. Also, in experiment [2], the inhibition at 50 µM worked out at 100%.

`CCCCCCCCCCCC#Cc1cn([C@H]2CC[C@@H](CO)O2)c(=O)[nH]c1=O` showed an inhibition at 10 µM in experiment [3] of 100%. Also, the MIC90 in experiment [4] was found to be 1 µg/mL (≈ 2.56 µM). Moreover, the inhibition at 100 µM in experiment [1] amounted to 100%. In addition, 1 µM produced 60% inhibition in experiment [5]. Also, the inhibition at 50 µM in experiment [2] turned out to be 100%.

Molecule `CCCc1ccc(C#Cc2cn([C@H]3C[C@H](F)[C@@H](CO)O3)c(=O)[nH]c2=O)cc1` had an inhibition at 10 µM in experiment [3] of 50%. Also, the MIC90 in experiment [4] amounted to 50 µg/mL (≈ 134 µM). In experiment [1], testing at 100 µM gave an inhibition of 100%. The molecule further had an inhibition at 50 µM in experiment [2] of 100%.

In experiment [3], `Cc1cn([C@H]2CC[C@@H](CO)O2)c(=O)nc1N` had an inhibition at 10 µM of 50%. In experiment [1], this molecule gave an inhibition at 100 µM of 50%. For the same molecule, the inhibition at 50 µM in experiment [2] amounted to 50%.

For the molecule `CCCCCCCCC#Cc1cn([C@H]2CC[C@@H](CO)O2)c(=O)[nH]c1=O`, 10 µM produced 100% inhibition in experiment [3]. Besides, the MIC90 in experiment [4] came out at 1 µg/mL (≈ 2.87 µM). Testing at 100 µM in experiment [1] gave an inhibition of 100%. The same molecule displayed an inhibition at 1 µM in experiment [5] of 50%. The molecule further had an inhibition at 50 µM in experiment [2] of 100%.

With `Nc1nc(N)c2ncn([C@H]3CC[C@@H](CO)O3)c2n1`, in experiment [1], the inhibition at 100 µM was determined as 50%. In experiment [2], the inhibition at 50 µM stood at 50%.

In the case of `CCCCCCCCCCCC#Cc1cn([C@H]2C[C@H](F)[C@@H](CO)O2)c(=O)[nH]c1=O`, 10 µM produced 75% inhibition in experiment [3]. The same molecule registered an MIC90 in experiment [4] of 10 µg/mL (≈ 24.5 µM). For the same molecule, the inhibition at 100 µM in experiment [1] is 100%. In experiment [2], this molecule registered an inhibition at 50 µM of 100%.

As for `CCCCCCCCCCCCC#Cc1cn([C@H]2CC[C@@H](CO)O2)c(=O)[nH]c1=O`, 10 µM produced 100% inhibition in experiment [3]. The molecule also came in with an MIC90 in experiment [4] of 1 µg/mL (≈ 2.47 µM). Moreover, the inhibition at 100 µM in experiment [1] worked out at 100%. In experiment [5], this molecule had an inhibition at 1 µM of 50%. Also, the inhibition at 50 µM in experiment [2] worked out at 100%.

The molecule `Nc1nc(F)c2ccn([C@H]3CC[C@@H](CO)O3)c2n1` yielded an inhibition at 10 µM in experiment [3] of 30%. In addition, the inhibition at 100 µM in experiment [1] is 50%. In experiment [2], this molecule yielded an inhibition at 50 µM of 50%.

On to `N#Cc1cn(C2CCC(CO)O2)c2ncnc(N)c12` (stereo not drawn), for which the inhibition at 100 µM in experiment [1] came to 50%. In addition, in experiment [2], testing at 50 µM gave an inhibition of 40%.

For `Nc1ccn([C@@H]2CS[C@H](CO)O2)c(=O)n1` [LAMIVUDINE], testing at 100 µM in experiment [1] gave an inhibition of 0%.

The values are drawn from ChEMBL document CHEMBL1148772, “Inhibition of Mycobacterium tuberculosis, Mycobacterium bovis, and Mycobacterium avium by novel dideoxy nucleosides” (J Med Chem, 2007).
